Assays:
Assay in all cases: relative viability (nuclei count vs DMSO), 5 days (fraction); higher = more cells survive
XMD13-2 + Crizotinib = compound: C1CC1C(=O)NC2=NNC3=C2C=CC(=C3)C4=CC(=CC=C4)C(=O)NC5CC5 [XMD13-2] + C[C@@H](Oc1cc(-c2cnn(C3CCNCC3)c2)cnc1N)c1c(Cl)ccc(F)c1Cl [Crizotinib] (partner 1 µM)
Summary of the method: (§1)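 Lung cancer cell lines were seeded in 1536-well plates and dosed by pin tool the next day, with either a single drug or a fixed anchor-drug dose combined with five library-drug doses (not always all listed) spaced in √10 steps. Five days later, one step fixed the cells and stained their nuclei (final 0.05% Triton X-100, 1% formaldehyde, 1 ug/ml Hoechst), and nuclei were counted on 4× images. Relative viability is the nuclei count in treated wells divided by the count in vehicle wells, and each value is the median of duplicate plates.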

ALW-II-49-7 + Bortezomib = compound: Cc1ccc(C(=O)Nc2cccc(C(F)(F)F)c2)cc1Nc1cncc(C(N)=O)c1 [ALW-II-49-7] + CC(C)C[C@H](NC(=O)[C@H](Cc1ccccc1)NC(=O)c1cnccn1)B(O)O [Bortezomib] (partner 0.002 µM)
Summary of the method: as §1

Dasatinib + OSI-027 = compound: Cc1nc(Nc2ncc(C(=O)Nc3c(C)cccc3Cl)s2)cc(N2CCN(CCO)CC2)n1 [Dasatinib] + COc1cccc2cc(-c3nc([C@H]4CC[C@H](C(=O)O)CC4)n4ncnc(N)c34)[nH]c12 [OSI-027] (partner 0.5 µM)
Summary of the method: as §1

Dasatinib + Decitabine = compound: Cc1nc(Nc2ncc(C(=O)Nc3c(C)cccc3Cl)s2)cc(N2CCN(CCO)CC2)n1 [Dasatinib] + Nc1ncn([C@H]2C[C@H](O)[C@@H](CO)O2)c(=O)n1 [Decitabine] (partner 2 µM)
Summary of the method: as §1

UMC-11
relative viability (XMD13-2 + Crizotinib; first compound 0.05 µM): 0.58
relative viability (XMD13-2 + Crizotinib; first compound 0.1581 µM): 0.557
relative viability (XMD13-2 + Crizotinib; first compound 0.5 µM): 0.647
relative viability (XMD13-2 + Crizotinib; first compound 1.581 µM): 0.467
relative viability (XMD13-2 + Crizotinib; first compound 5 µM): 0.329
relative viability (ALW-II-49-7 + Bortezomib; first compound 0.08 µM): 0.514
relative viability (ALW-II-49-7 + Bortezomib; first compound 0.253 µM): 0.786
relative viability (ALW-II-49-7 + Bortezomib; first compound 2.53 µM): 0.792
relative viability (ALW-II-49-7 + Bortezomib; first compound 8 µM): 0.521
relative viability (Dasatinib + OSI-027; first compound 0.005 µM): 0.459
relative viability (Dasatinib + OSI-027; first compound 0.01581 µM): 0.375
relative viability (Dasatinib + OSI-027; first compound 0.05 µM): 0.413
relative viability (Dasatinib + OSI-027; first compound 0.1581 µM): 0.329
relative viability (Dasatinib + OSI-027; first compound 0.5 µM): 0.264
relative viability (Dasatinib + Decitabine; first compound 0.005 µM): 0.58
relative viability (Dasatinib + Decitabine; first compound 0.01581 µM): 0.595
relative viability (Dasatinib + Decitabine; first compound 0.05 µM): 0.532
relative viability (Dasatinib + Decitabine; first compound 0.1581 µM): 0.292
relative viability (Dasatinib + Decitabine; first compound 0.5 µM): 0.246

From the supplement of paper PMC10307832
